In US20260098025A1, “DIMERIC COMPOUNDS AS INHIBITORS OF GLYCOGEN SYNTHASE 1 (GYS1) AND METHODS OF USE THEREOF” (Maze Therapeutics, Inc., priority 2022, published 2026) one finds IC50 data, which are given here for 12 compounds.

Structures are written as SMILES.

The experiment addresses T1, recombinant hGYS1/GN1 protein (Homo sapiens, UniProt P13807).
T1 sequence (P13807 1-737): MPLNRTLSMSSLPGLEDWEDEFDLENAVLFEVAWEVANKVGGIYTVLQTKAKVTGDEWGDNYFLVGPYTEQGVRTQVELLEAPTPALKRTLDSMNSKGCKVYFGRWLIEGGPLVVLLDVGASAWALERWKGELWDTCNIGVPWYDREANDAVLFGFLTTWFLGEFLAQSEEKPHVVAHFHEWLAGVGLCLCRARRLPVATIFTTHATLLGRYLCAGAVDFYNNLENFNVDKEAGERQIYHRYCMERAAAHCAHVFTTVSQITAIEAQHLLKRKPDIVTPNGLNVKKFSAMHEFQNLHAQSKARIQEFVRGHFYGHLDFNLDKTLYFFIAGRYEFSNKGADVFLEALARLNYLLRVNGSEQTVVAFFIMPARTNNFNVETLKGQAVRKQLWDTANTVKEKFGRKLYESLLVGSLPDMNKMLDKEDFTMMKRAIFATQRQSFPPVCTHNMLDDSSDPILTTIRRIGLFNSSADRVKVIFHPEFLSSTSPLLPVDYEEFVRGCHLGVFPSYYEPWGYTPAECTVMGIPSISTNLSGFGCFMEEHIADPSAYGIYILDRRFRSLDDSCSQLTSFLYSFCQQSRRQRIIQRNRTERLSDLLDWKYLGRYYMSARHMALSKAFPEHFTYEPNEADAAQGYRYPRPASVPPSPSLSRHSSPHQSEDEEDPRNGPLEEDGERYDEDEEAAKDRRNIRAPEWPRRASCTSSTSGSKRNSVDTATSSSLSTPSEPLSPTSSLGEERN
T1 sequence (P46976 1-350 partner): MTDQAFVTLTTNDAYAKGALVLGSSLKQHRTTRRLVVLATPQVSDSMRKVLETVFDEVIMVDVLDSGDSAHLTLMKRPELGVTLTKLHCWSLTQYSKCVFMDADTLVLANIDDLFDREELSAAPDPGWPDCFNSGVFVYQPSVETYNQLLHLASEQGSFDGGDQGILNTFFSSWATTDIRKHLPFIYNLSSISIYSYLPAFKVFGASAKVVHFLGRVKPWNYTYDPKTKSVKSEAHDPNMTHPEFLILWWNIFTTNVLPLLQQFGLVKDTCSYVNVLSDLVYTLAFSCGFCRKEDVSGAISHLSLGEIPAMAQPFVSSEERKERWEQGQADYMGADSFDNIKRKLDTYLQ
Description: GYS1 coupled enzyme assay (PK/LDH, NADH absorbance at 340 nm). The conditions noted are these: geometric mean of at least 2 assay runs on separate days; hGYS1/GN1 50 nM, Glucose-6-Phosphate 1 mM, UDP-Glucose 0.8 mM. In kind it is biochemical. From the text: The GYS1 coupled enzyme assay is a kinetic biochemical assay that indirectly quantifies the rate of glycogen synthesis by coupling the conversion of GYS1 substrate UDP-glucose into UDP with downstream enzymatic reactions. UDP is released from UDP-glucose as glucose monomers are linked into the growing glycogen strand by GYS1. The coupled assay then proceeds with pyruvate kinase utilizing UDP and phospho(enol)pyruvate (PEP) to form pyruvate. Lactate dehydrogenase then converts pyruvate and NADH into lactate and NAD+. Oxidation of NADH to NAD+ can be measured continuously with a plate reader by quantifying the decrease in NADH absorbance at 340 nm over time.
Compounds that inhibit the hGYS1 enzyme and, subsequently, the downstream conversion of NADH to NAD+, were tested using assay ready plates (black, clear bottom 384 well plates) in a final DMSO reaction volume of 2.5% DMSO. The Assay Buffer contained 50 mM Tris pH 7.5, 2 mM MgCl2, and 100 mM KCl. Fresh stocks of BSA at a final concentration of 0.02% and TCEP at 1 mM were added before splitting buffer into hGYS1 buffer and substrate buffer. To the hGYS1 buffer, rabbit liver glycogen was added at a final concentration of 0.2% glycogen. Glucose-6-Phosphate was added at 1 mM, recombinant hGYS1/GN1 protein was added at 50 nM to the substrate buffer, phosphoenolpyruvate (PEP) was added at 2 mM, UDP-Glucose was added at 0.8 mM, NADH) was added at 0.6 mM, and Pyruvate Kinase/Lactate Dehydrogenase was added at 20 units/mL. The reaction was initiated by mixing hGYS1 buffer and substrate buffer at a 1:1 ratio. Both buffers were plated using a liquid dispensing device with hGYS1 buffer plated first followed by the substrate buffer. Plates were spun briefly to eliminate air bubbles and are immediately read in continuous mode at an absorbance of 340 nm, for 10 time points in one-minute increments, for a total of 10 minutes. The slope from these 10 time points was normalized to the positive and negative control wells. The duplicate % inhibition values are then averaged and fit to a Hill equation for dose response according to the Levenberg-Marquardt algorithm with the Hill equation maximum set to 100 and the minimum set to 0.
The results are shown in Table 2 below, which reports the IC50 of each compound. Unless otherwise specified, IC50 values are reported as the geometric mean of at least 2 assay runs on separate days. Each run represents the average of a technical replicate, where each compound was assayed twice in the same plate. As shown in the table below, the compounds of the present invention are potent inhibitors of human GYS1. A superscript “#” symbol in Table 2 indicates results from a single assay run.
Note that, in Table 2, the compounds are referred to by the corresponding Compound No. in Table 1, which is also referred to in the synthetic examples.

As to `O=C(COCCOCCOCCOCCOCCOCCOCCOCCOCCOCCOCCOCC(=O)N[C@@H](c1ccccc1)c1ccc(C2CC2)c(F)n1)N[C@@H](c1ccccc1)c1ccc(C2CC2)c(F)n1` [Compound 3, N^1,N^38-bis((S)-(5-cyclopropyl-6-fluoropyridin-2-yl)(phenyl)methyl)-3,6,9,12,15,18,21,24,27,30,33,36-dodecaoxaoctatriacontanediamide], the half-inhibitory concentration (IC50) came to 5.71 µM.
To `Cc1cn(CC(=O)N2C[C@H](F)C[C@H]2C(=O)N[C@@H](c2ccccc2)c2ccc(C3CC3)c(F)n2)c(=O)n(CCOCCOCCn2c(=O)c(C)cn(CC(=O)N3C[C@H](F)C[C@H]3C(=O)N[C@@H](c3ccccc3)c3ccc(C4CC4)c(F)n3)c2=O)c1=O` [Compound 15, (2S,2′S,4R,4′R)-1,1′-(2,2′-(((ethane-1,2-diylbis(oxy))bis(ethane-2,1-diyl))bis(5-methyl-2,4-dioxo-3,4-dihydropyrimidine-3,1(2H)-diyl))bis(acetyl))bis(N-((S)-(5-cyclopropyl-6-fluoropyridin-2-yl)(phenyl)methyl)-4-fluoropyrrolidine-2-carboxamide)] belongs 0.0053 µM.
To `O=C(N[C@@H](c1ccccc1)c1ccc(C2CC2)c(F)n1)[C@@H]1C[C@@H](F)CN1C(=O)COCCOCCOCC(=O)N1C[C@H](F)C[C@H]1C(=O)N[C@@H](c1ccccc1)c1ccc(C2CC2)c(F)n1` [Compound 12, (2S,2′S,4R,4′R)-1,1′-(2,2′-((oxybis(ethane-2,1-diyl))bis(oxy))bis(acetyl))bis(N-((S)-(5-cyclopropyl-6-fluoropyridin-2-yl)(phenyl)methyl)-4-fluoropyrrolidine-2-carboxamide)] belongs 0.0821 µM; to `O=C(N[C@@H](c1ccccc1)c1ccc(C2CC2)c(F)n1)[C@@H]1C[C@@H](F)CN1C(=O)COCCOCCOCCOCCOCC(=O)N1C[C@H](F)C[C@H]1C(=O)N[C@@H](c1ccccc1)c1ccc(C2CC2)c(F)n1` [Compound 10, (2S,2′S,4R,4′R)-1,1′-(3,6,9,12,15-pentaoxaheptadecanedioyl)bis(N-((S)-(5-cyclopropyl-6-fluoropyridin-2-yl)(phenyl)methyl)-4-fluoropyrrolidine-2-carboxamide)], 0.0144 µM.
To `Cc1cn(CC(=O)N2C[C@H](F)C[C@H]2C(=O)N[C@@H](c2ccccc2)c2ccc(C3CC3)c(F)n2)c(=O)nc1OCCOc1nc(=O)n(CC(=O)N2C[C@H](F)C[C@H]2C(=O)N[C@@H](c2ccccc2)c2ccc(C3CC3)c(F)n2)cc1C` [Compound 16, (2S,2′S,4R,4′R)-1,1′-(2,2′-((ethane-1,2-diylbis(oxy))bis(5-methyl-2-oxopyrimidine-4,1(2H)-diyl))bis(acetyl))bis(N-((S)-(5-cyclopropyl-6-fluoropyridin-2-yl)(phenyl)methyl)-4-fluoropyrrolidine-2-carboxamide)] belongs 0.023 µM.
Consider `O=C(N[C@@H](c1ccccc1)c1ccc(C2CC2)c(F)n1)[C@@H]1C[C@@H](F)CN1C(=O)Cn1cc(COCCOc2cn(CC(=O)N3C[C@H](F)C[C@H]3C(=O)N[C@@H](c3ccccc3)c3ccc(C4CC4)c(F)n3)nn2)nn1` [Compound 8, (2S,4R)-N-((S)-(5-cyclopropyl-6-fluoropyridin-2-yl)(phenyl)methyl)-1-(2-(4-(2-((1-(2-((2S,4R)-2-(((S)-(5-cyclopropyl-6-fluoropyridin-2-yl)(phenyl)methyl)carbamoyl)-4-fluoropyrrolidin-1-yl)-2-oxoethyl)-1H-1,2,3-triazol-4-yl)methoxy)ethoxy)-1H-1,2,3-triazol-1-yl)acetyl)-4-fluoropyrrolidine-2-carboxamide], for which the concentration for half-maximal inhibition (IC50) came out at 0.0052 µM.
Under `CN(CCOCCOCCOCC(=O)N1C[C@H](F)C[C@H]1C(=O)N[C@@H](c1ccccc1)c1ccc(C2CC2)c(F)n1)CCOCCOCC(=O)N1C[C@H](F)C[C@H]1C(=O)N[C@@H](c1ccccc1)c1ccc(C2CC2)c(F)n1` [Compound 17, (2S,2′S,4R,4′R)-1,1′-(9-methyl-3,6,12,15,18-pentaoxa-9-azaicosanedioyl)bis(N-((S)-(5-cyclopropyl-6-fluoropyridin-2-yl)(phenyl)methyl)-4-fluoropyrrolidine-2-carboxamide)] stands 0.0075 µM.
`O=C(N[C@@H](c1ccccc1)c1ccc(C2CC2)c(F)n1)[C@@H]1C[C@@H](F)CN1C(=O)COCCOCCOCCOCCOCCOCC(=O)N1C[C@H](F)C[C@H]1C(=O)N[C@@H](c1ccccc1)c1ccc(C2CC2)c(F)n1` [Compound 5, (2S,2′S,4R,4′R)-1,1′-(3,6,9,12,15,18-hexaoxaicosanedioyl)bis(N-((S)-(5-cyclopropyl-6-fluoropyridin-2-yl)(phenyl)methyl)-4-fluoropyrrolidine-2-carboxamide)]: the half-maximal inhibitory concentration (IC50) turned out to be 0.0054 µM.
To `O=C(COCCOCCOCCOCCOCCOCCOCCOCCOCCOCCOCC(=O)N[C@@H](c1ccccc1)c1ccc(C2CC2)c(F)n1)N[C@@H](c1ccccc1)c1ccc(C2CC2)c(F)n1` [Compound 6, N^1,N^35-bis((S)-(5-cyclopropyl-6-fluoropyridin-2-yl)(phenyl)methyl)-3,6,9,12,15,18,21,24,27,30,33-undecaoxapentatriacontanediamide] belongs 7.5 µM; to `O=C(N[C@@H](c1ccccc1)c1ccc(C2CC2)c(F)n1)[C@@H]1C[C@@H](F)CN1C(=O)COCCOCCOCCOCC(=O)N1C[C@H](F)C[C@H]1C(=O)N[C@@H](c1ccccc1)c1ccc(C2CC2)c(F)n1` [Compound 11, (2S,2′S,4R,4′R)-1,1′-(3,6,9,12-tetraoxatetradecanedioyl)bis(N-((S)-(5-cyclopropyl-6-fluoropyridin-2-yl)(phenyl)methyl)-4-fluoropyrrolidine-2-carboxamide)], 0.0146 µM; to `O=C(N[C@@H](c1ccccc1)c1ccc(C2CC2)c(F)n1)[C@@H]1C[C@@H](F)CN1C(=O)COCCOCCOCCOCCOCCOCCOCC(=O)N1C[C@H](F)C[C@H]1C(=O)N[C@@H](c1ccccc1)c1ccc(C2CC2)c(F)n1` [Compound 2, (2S,2′S,4R,4′R)-1,1′-(3,6,9,12,15,18,21-heptaoxatricosanedioyl)bis(N-((S)-(5-cyclopropyl-6-fluoropyridin-2-yl)(phenyl)methyl)-4-fluoropyrrolidine-2-carboxamide)], 0.0056 µM.
For `O=C(N[C@@H](c1ccccc1)c1ccc(C2CC2)c(F)n1)[C@@H]1C[C@@H](F)CN1C(=O)Cn1cc(OCCOCCOc2cn(CC(=O)N3C[C@H](F)C[C@H]3C(=O)N[C@@H](c3ccccc3)c3ccc(C4CC4)c(F)n3)nn2)nn1` [Compound 1, (2S,2′S,4R,4′R)-1,1′-(2,2′-(((oxybis(ethane-2,1-diyl))bis(oxy))bis(1H-1,2,3-triazole-4,1-diyl))bis(acetyl))bis(N-((S)-(5-cyclopropyl-6-fluoropyridin-2-yl)(phenyl)methyl)-4-fluoropyrrolidine-2-carboxamide)], the IC50 is 0.0108 µM.

A word on the IC50: it is the concentration needed to halve the response being measured.
